Experimental findings from patent US20260283941A1, “PHARMACEUTICAL COMPOSITION CONTAINING PYRROLE GASTRIC ACID SECRETION INHIBITOR AND PREPARATION METHOD THEREFOR” (JIANGSU CAREPHAR PHARMACEUTICAL CO., LTD., priority 2022, published 2026) are described below.

The nature of this series: Stability investigation: properties (appearance) of the injection solutions. The series is classed as physicochemical. Conditions: pH of the injectable composition 2.0.

Protocol: The compound represented by formula II and the stabilizer were weighed and dissolved in 90% of a prescribed amount of water for injection. The pH of the solution was adjusted with hydrochloric acid, and then water for injection was added to the full amount. The solution was filled up to 2 mL, and was flushed with nitrogen before and after filling and sealing. The solution was sterilized at 121° C. for 15 minutes to obtain the composition. […] The changes of impurities were detected by high-performance liquid chromatography (HPLC). The analytical method used to detect the impurity content was as follows:
The compound represented by formula II and disodium edetate or calcium disodium edetate were weighed and dissolved in 90% of a prescribed amount of water for injection. The pH of the solution was adjusted with hydrochloric acid, and then water for injection was added to the full amount. The solution was filled in a 2 mL ampoule, and was flushed with nitrogen before and after filling and sealing. The sample was sterilized at 121° C. for 15 minutes to obtain the composition. The compositions were placed under conditions including a high temperature of 60° C. and illumination at 5000 Lx for stability investigation, to determine the properties of the injection solutions and the changes of impurities.

In the case of `CNCc1cc(-c2ccccc2F)n(S(=O)(=O)c2cccc(OCCCOC)c2)c1.Cl` [compound represented by formula II], the “Solubility (in words)” value is listed as “reduced solubility”.
